Consider one compound from patent publication US20210369720A1, “SYNERGISTIC COMPOSITION HAVING NEUROPROTECTIVE PROPERTIES AND METHODS OF USE THEREOF” (Rutgers, The State University of New Jersey, priority 2018, published 2021).

Assay [1] has as its system phosphorylated α-synuclein (p-α-Syn). Briefly: Immunohistochemical staining of p-α-Syn, α-Syn PFF inoculated WT mice. Format: in vivo. Conditions: EHT 12 mg/kg/day and/or caffeine 50 mg/kg/day. From the text: (§1) Thy1-α-synuclein transgenic mice (Syn^Tg) on BDF1 background overexpressing human wild-type α-synuclein under the control of the Thy1 promoter were maintained by mating heterozygous transgenic females with WT BDF1 males (Rockenstein E, et al. (2002) Differential neuropathological alterations in transgenic mice expressing alpha-synuclein from the platelet-derived growth factor and Thy-1 promoters. J Neurosci Res 68(5):568-578). BDF1 mice (mixed C57BL/6-DBA/2) were generated every three months by mating female C57BL/6 (The Jackson Laboratory) and male DBA/2 mice (Charles River). Experiments were performed with male transgenic mice and their WT littermates. […] Wild-type littermates received regular water and control chow. […] At two months of age, mice were inoculated with α-Syn PFF unilaterally in the striatum. These treatments continued throughout the experiment until animals were sacrificed. Mice were weighed and their food and water intake was quantified weekly. Animals were housed 2-5/cage in an AAALAC approved facility in a temperature- and humidity-controlled environment under a 12-hour light/dark cycle and were maintained on a diet of lab chow and water ad libitum. All animal procedures were approved by the Rutgers-Robert Wood Johnson Medical School Institutional Animal Care and Use Committee and were performed according to the National Institutes of Health Guide for the Care and Use of Laboratory Animals.
α-Syn PFF solution was sonicated at 60% amplitude 30 times (0.5 sec on, 0.5 sec off). During the stereotactic surgery, two month old WT C57BL/6 mice were anesthetized by Ketamine/xylazine (90/4.5 mg/kg, i.p., Ketaset from Zoetis, and Anased from Akorn) and positioned in a digital stereotaxic apparatus (Stoelting, Wood Dale, Ill.). A midline sagittal incision was made in the scalp, and a hole was drilled in the skull over the right striatum according to the coordinates below. All injections were made using a Hamilton neuros syringe equipped with a 33 gauge needle and attached to a Quintessential Stereotaxic Injector (Stoelting, Wood Dale, Ill.). A total of 5∝g/2.5 ul of α-Syn PFF was infused in the dorsal striatum (+0.2 mm relative to Bregma, +2.0 mm from midline, +2.6 mm beneath the dura) at a delivery rate of 0.2∝l/min (61). The needle was kept in place for 5 min following the infusion to prevent reflux before withdrawing.
Immunohistochemical analyses were performed as described previously (Lee et al., 2011; 2012). Mice were perfused transcardially with PBS, and brains were removed and post-fixed in 10% formalin at 4° C. overnight. Fixed brains were then sectioned coronally in 30 am thickness using a cryostat and collected as sets of slices with the same interval. Free-floating sections were blocked by 1% BSA and 0.2% Triton X100 in PBS. Sections were then incubated with primary antibody overnight at 4° C. and biotinylated secondary antibody for 1 hour at room temperature.
Vectastain elite ABC kit (Vector Laboratories, Burlingame, Calif.) and 3,3′-diaminobenzidine (Sigma-Aldrich) were used for amplifying and color development. Images were captured by Nikon Eclipse 55i. Staining intensity and phosphorylated α-synuclein (p-α-Syn) aggregate counts were obtained by Image Pro Plus. Intensity calibration was set to the level of a blank area in each image. HSI (hue, saturation and intensity) was used for the color selection with the standard parameters of H: 0-30, S: 0-255 and I: 0-160. […]

Assay [2] has as its system PP2A. Put plainly: Western blot of PP2A methylation, ipsilateral striatal tissue lysates of α-Syn PFF inoculated mice. Format: in vivo. The conditions noted are these: EHT 12 mg/kg/day and/or caffeine 50 mg/kg/day, vs untreated α-Syn PFF inoculated mice.
Description: as §1
α-Syn PFF solution was sonicated at 60% amplitude 30 times (0.5 sec on, 0.5 sec off). During the stereotactic surgery, two month old WT C57BL/6 mice were anesthetized by Ketamine/xylazine (90/4.5 mg/kg, i.p., Ketaset from Zoetis, and Anased from Akorn) and positioned in a digital stereotaxic apparatus (Stoelting, Wood Dale, Ill.). […]
Human neuroblastoma SH-SY5Y cells were cultured in DMEM-F12 with 10% FBS. […] Protein concentration was determined by bicinchonic acid (BCA) method (Pierce), equal amount of protein was separated on 5-20% SDS-PAGE gel (Genescript) and transferred to nitrocellulose or PVDF membrane (Biorad). […]
(In general: In western blotting, separated proteins are transferred to a membrane and probed.)

Assay [3] has as its system α-Syn PFF inoculated WT mice. Briefly: Wire Hang test, α-Syn PFF inoculated WT mice. The conditions noted are these: EHT 12 mg/kg/day in diet and/or caffeine 50 mg/kg/day in drinking water from weaning, 6 months post-inoculation. Format: in vivo.
Description: as §1, with “All animal procedures were approved by the Rutgers-Robert Wood Johnson Medical School Institutional Animal Care and Use Committee and were performed according to the National Institutes of Health Guide for the Care and Use of Laboratory Animals.” left out

Assay [4] deals with Syn^Tg mice. Conditions: cited from earlier work.
Another assay relates to dopamine. Briefly: Striatal dopamine content by HPLC-MS, α-Syn PFF inoculated WT mice. The assay is classed as in vivo. Conditions: each compound alone, EHT 12 mg/kg/day or caffeine 50 mg/kg/day, vs untreated α-Syn PFF inoculated mice.
Description: as §1, with “All animal procedures were approved by the Rutgers-Robert Wood Johnson Medical School Institutional Animal Care and Use Committee and were performed according to the National Institutes of Health Guide for the Care and Use of Laboratory Animals.” left out

Assay [5] deals with PP2A. Briefly: Western blot of PP2A methylation in SH-SY5Y cells challenged with α-Syn PFF. Format: cell-based, Human. The conditions noted are these: SH-SY5Y cells challenged with mouse α-Syn PFF for 7 days; caffeine and/or EHT added to the medium. The method, then: (§2) Human neuroblastoma SH-SY5Y cells were cultured in DMEM-F12 with 10% FBS. At 50% confluency, cells were treated with 1 gg/ml mouse α-Syn PFF in DMEM-F12 with 1% FBS for 7 days. Medium was refreshed every 3 days. Cell harvesting was done with 2% SDS in PBS supplemented with protease inhibitor (Millipore) and phosphatase inhibitor (Sigma-Aldrich). Lysates were sonicated and boiled at 95° C. for 5 minutes. Protein concentration was determined by bicinchonic acid (BCA) method (Pierce), equal amount of protein was separated on 5-20% SDS-PAGE gel (Genescript) and transferred to nitrocellulose or PVDF membrane (Biorad). Following transfer, membranes were blocked for 1 hour at room temperature in blocking buffer (Li-Cor) or 5% (w/v) BSA/TBS-Tween 0.1% (v/v). Primary antibodies were diluted in blocking buffer or 5% (w/v) BSA/TBS-Tween 0.1% (v/v) and incubated with the membranes at 4° C. overnight. Membranes were washed three times in TBS-Tween and incubated in diluted IRDye 800CW or HRP conjugated secondary antibody for 1 hour at room temperature. Following washing, membranes were scanned by Li-Cor Odyssey CLx infrared imaging system or treated with the Western Lightning ECL-plus reagents (PerkinElmer) and exposed to autoradiography films (LabScientific).

Assay [6] has as its system Syn^Tg mice. Put plainly: Wire Hang test, Syn^Tg mice. The assay is classed as in vivo. Conditions: EHT 12 mg/kg/day in chow and/or caffeine 50 mg/kg/day in drinking water from weaning until six months of age, vs untreated Syn^Tg mice.
Description: as §1, with “All animal procedures were approved by the Rutgers-Robert Wood Johnson Medical School Institutional Animal Care and Use Committee and were performed according to the National Institutes of Health Guide for the Care and Use of Laboratory Animals.” left out

The subject of another assay is p-α-Syn. Put plainly: Western blot of p-α-Syn in SH-SY5Y cells challenged with α-Syn PFF. Conditions: SH-SY5Y cells challenged with mouse α-Syn PFF for 7 days; caffeine and/or EHT added to the medium. Format: cell-based, Human. The method, then: as §2
[7] abbreviates: vs untreated α-Syn PFF inoculated mice.

For the compound `CCCCCCCCCCCCCCCCCCCC(=O)NCCc1c[nH]c2ccc(O)cc12` [EHT, eicosanoyl-5-hydroxytryptamide], the “p-α-Syn immunoreactivity in the ipsilateral nigra” value in assay [1] was “less abundant”. Also, in assay [1] (setting [7]), the “p-α-Syn in the contralateral striatum” value is “partially but insignificantly reduced” and the “p-α-Syn in the ipsilateral striatum” value is reported as “partially but insignificantly reduced”. In the assay on PP2A [2], the “methyl- to demethyl-PP2A ratio” value is recorded as “insignificant increase” and the methyl-PP2A levels result is “insignificant increase”. Further, in assay [3], the “performance on the wire hang test” value is on record as “improved performance”. The “molecular, histochemical, and behavioral benefits” value in the assay on Syn^Tg mice [4] (EHT 12 mg/kg/day in chow, nine months of treatment) was “partial amelioration”. In addition, the “PP2A methylation in brain tissue lysates” value with Syn^Tg mice [4] (EHT alone for nine months, dose dependent, more evident at 120 mg/kg/day) is recorded as “modulated PP2A methylation”. Besides, in the assay on Syn^Tg mice [4] (EHT alone for nine months, more evident at 120 mg/kg/day), the “accumulation of p-α-Syn” value is recorded as “reduced the accumulation of p-α-Syn”. The “dopamine (DA) content in lysates of the ipsilateral striatum, benefit in words” value with dopamine was “did not have a significant benefit”. Moreover, in the assay with PP2A [5], the “demethylated PP2A levels” value is listed as “partially reversed this trend”, the “methyl- to demethyl-PP2A ratio” value is reported as “not individually” and the “methylated PP2A levels” value was “partially reversed this trend”. The “performance on the wire hang test” value in the assay on Syn^Tg mice [6] is listed as “did so only on the Wire Hang test”. For the same compound, in the assay on p-α-Syn, the p-α-Syn levels result was “reduced it partially”.
